The nature of data set [1]: Test II, cellular toxicity, F5000 cells. Format: cell-based. As to conditions: human, read-out: % inhibition of cell multiplication. As for the experimental part:
(§1) F5000 cells, which are human embryo cells, 1×10^5 cells per plate, are incubated in Eagle's minimal essential medium, supplemented with Earle's salts, non-essential amino acids, 10% fetal calf serum, 10 mM hopes, 70 mg/l penicillin and 100 mg/l streptomycin, in absence or presence of test compounds. The number of cells per plate is determined after 48 h. Cells incubated in the absence of test compounds underwent one cell division cycle.

Data set [2] in a line: Test II, cellular toxicity, H9 cells. Format: cell-based. The conditions noted are these: human, read-out: % inhibition of cell multiplication. As for the experimental part: H9 cells, 2×10^7 cells per plate, are incubated in […] medium containing 10% fetal calf serum, 70 mg/l penicillin, 100 mg/l streptomycin and 10 mM hepes, in absence or presence of test compounds. The number of cells per plate is determined after 48 h. Cells incubated in the absence of test compounds then underwent two cell division cycles.
as §1

Data set [3] deals with HIV (HTLV-IIIB). Description: Test I, effect of compounds on HIV in H9 cells (HIV antigen containing cells). Format: cell-based. As to conditions: read-out: Concentration for 50% inhibition (IC50) of human immuno deficiency virus multiplication in cell culture. As for the experimental part:
Materials and methods: HIV infection of H9 cells
H9 cells, 10^5 cells per well on a 24 well plate, suspended in 2 ml RPMI-medium containing 10% fetal calf serum, 100 μg/ml penicillin, 10 μg/ml streptomycin sulfate and 2μg/ml polybrene are exposed to HIV (HTLV-IIIB) and different concentrations of the test compounds. The plates are incubated at 37° C. in 5% CO2 for 6-7 days. The contents in each well is then homogenized with a pipette and transferred to a centrifuge tube. After centrifugation for 10 min at 1500 rpm the supernatant is removed and the cell pellet is analyzed by fixing in methanol on glass plates. Human HIV positive serum diluted 1:80 or 1:160 is added and incubated for 30 min at 37° C. The plate is then washed with phosphate-buffered saline (PBS) containing Ca^2+ and Mg^2+. Sheep antihuman conjugate (FITC) is added and after a new incubation the plate is again washed with PBS. Contrast staining is done with Evans blue and after drying the frequency of HIV antigen containing cells is determined in a microscope.

The subject of data set [4] is HIV. Briefly: Inhibition of HIV multiplication in cell culture, H9 cells (Koshida et al. method). As to conditions: for inhibition at 1 µg/mL: Human immunodeficiency virus 1, H9, 1 μg/ml; for inhibition at 10 µg/mL: Human immunodeficiency virus 1, H9, 10 μg/ml; for inhibition at 0.1 µg/mL: Human immunodeficiency virus 1, H9, 0.1 μg/ml. The class given is cell-based. From the text: The activity against human immunodeficiency virus (HIV) has been tested for the compounds listed and the resulting activities are shown in the Table below.
The data in the Table were gathered and tests performed as described by Koshida et el., "Inhibition of Human Immunodeficiency Virus in vitro by Combination of 3'-Azido-3'-Deoxythymidine and Foscarnet" in Antimicrob Agents and Chemotherapy, Vol 33 (1989) p. 778-780 (on H9 cells for compounds X-XII) and by De Clercq et el, Nucleosides and Nucleotides, Vol 8 (1989) p. 659-671 (on MT4 cells, literature data for compounds XIV-XVI).

The test system of data set [5] is HIV. The conditions noted are these: MT4 cells, literature data, cited from earlier work.
[6] abbreviates: Human immunodeficiency virus 1, 6-7 days.

Values joined by “and” are separate entries in the source; they are usually repeats but may differ in a detail not shown here. Equal entries are not always repeated. Where two headings read alike, the source gives them in different places. Where only a bound is given, the exact number is not on record here.

Consider `CCc1cn([C@H]2C[C@H](F)[C@@H](CO)O2)c(=O)[nH]c1=O` [VSA 410, 1-(3'-F-2',3'-dideoxy-β-D-ribofuranosyl)-5-ethyl-uracil], for which the inhibition at 48 h, 100 µM in data set [1] and in data set [2] (100 μM) was 25% throughout. The IC50 in data set [3] (setting [6]) was below 1000 nM.
As to `O=c1ccn([C@H]2C[C@H](F)[C@@H](CO)O2)c(=O)[nH]1` [VSA 417, 1-(3'-F-2',3'-dideoxy-β-D-ribofuranosyl)-uracil], the inhibition at 48 h, 100 µM in data set [1] amounted to 10%. For the same molecule, the IC50 in data set [3] (setting [6]) amounted to 500 nM.
On to `C#C[C@H]1C[C@H](n2cc(C)c(=O)[nH]c2=O)O[C@@H]1CO` [Example XII, 1-[2,3-Dideoxy-3-C-ethynyl-β-D-erythro-pentofuranosyl]thymine], for which, in data set [4], the inhibition at 1 µg/mL stood at 18% and the inhibition at 10 µg/mL is 54%.
As for `CCCc1cn([C@H]2C[C@H](F)[C@@H](CO)O2)c(=O)[nH]c1=O` [VSA 408, 1-(3'-F-2',3'-dideoxy-β-ribofuranosyl)-5-propyl-uracil], the inhibition at 48 h, 100 µM in data set [1] was determined as 0%. In data set [2] (250 μM), the inhibition at 48 h, 250 µM is 15%. Besides, the IC50 in data set [3] (setting [6]) came to 1000 nM.
For the molecule `O=c1[nH]c(=O)n([C@H]2C[C@H](F)[C@@H](CO)O2)cc1Br` [XIV, 5-bromo-1-(3'-fluoro-2',3'-dideoxy-β-D-ribofuranosyl)uracil], the “% Inhibition of HIV multiplication” value in data set [5] (0.1 μg/ml) is reported as 50%.
Turning to `CO[C@H]1[C@H](N=[N+]=[N-])[C@@H](CO)O[C@H]1n1cc(C)c(=O)[nH]c1=O` [Example XI, 1-(3'-azido-2'-methoxy-2',3'-dideoxy-β-D-arabinofuranosyl)thymine], the “% Inhibition of HIV multiplication” value turned out to be 32% in data set [4] (0.1 μg/ml) and 38% in data set [4] (1 μg/ml). Further, in data set [4], the inhibition at 0.1 µg/mL is 27%. In data set [4], the inhibition at 1 µg/mL was found to be 21%.
As to `CO[C@H]1[C@H](F)[C@@H](CO)O[C@H]1n1cc(C)c(=O)[nH]c1=O` [Example X, 1-(3'-fluoro-2'-methoxy-2',3'-dideoxy-β-D-arabinofuranosyl)thymine], the “% Inhibition of HIV multiplication” value in data set [4] (10 μg/ml) is 83% and 79%. Also, in data set [4], the inhibition at 0.1 µg/mL came to 58% and the inhibition at 10 µg/mL amounted to 85%.
As for `O=c1[nH]c(=O)n([C@H]2C[C@H](F)[C@@H](CO)O2)cc1Cl` [XVI], the “% Inhibition of HIV multiplication” value in data set [5] (0.04 μg/ml) was 50%.
Consider `O=c1[nH]c(=O)n([C@H]2C[C@H](F)[C@@H](CO)O2)cc1I` [XV, 5-iodo-1-(3'-fluoro-2',3'-dideoxy-β-D-ribofuranosyl)uracil], for which the “% Inhibition of HIV multiplication” value in data set [5] (0.1 μg/ml) is recorded as 50%.
In the case of `CC(=O)OC[C@H]1O[C@@H](n2cc(C)c(=O)[nH]c2=O)C[C@@H]1F` [VSB 423, 1-(5'-acetyl-3'-fluoro-2',3'-dideoxy-β-D-ribofuranosyl)-5-methyluracil], the IC50 in data set [3] (6-7 days) was below 10 nM.

The values above are taken from US5506215A, “1-(3'-fluoro-2',3'-dideoxy-β-D-ribofuranosyl)-5-substituted pyrimidine nucleosides” (Medivir AB, priority 1987, dated 1996).
